Experimental data from patent US7566739B2, “Substituted N-sulfonylaminophenylethyl-2-phenoxyacetamide compounds as VR1 receptor antagonists” (Pfizer Inc., priority 2005, dated 2009).

How the values were obtained:
human VR1 = human VR1 (Homo sapiens, UniProt Q8NER1); experiment: Human VR1 antagonist assay (Ca2+ imaging, capsaicin stimulation); assay type: cell-based; conditions: human VR1 expressing cells; concentration reducing capsaicin-evoked Ca2+ influx by 50%; capsaicin 300 nM; read-out: hVR1 IC50
Text: VR1 antagonistic activity can be determined by the Ca^2+ imaging assay using human VR1 highly expressing cells. The cells that highly express human VR1 receptors are obtainable from several different conventional methods. The one standard method is cloning from human Dorsal Root Ganglion (DRG) or kidney according to the methods such as described in the journal article; Nature, 389, pp 816-824, 1997. Alternatively VR1 receptors highly expressing human keratinocytes are also known and published in the journal article (Biochemical and Biophysical Research Communications, 291, pp 124-129, 2002). […] Such a genetic modification method was described in detail; Nat. Biotechnol., 19, pp 440-445, 2001. The cells that express human VR1 receptors were maintained in culture flask at 37° C. in an environment containing 5% CO2 until use in the assay. The intracellular Ca^2+ imaging assay to determine VR1 antagonistic activities was done according to the following procedures. The culture medium was removed from the flask and fura-2/AM fluorescent calcium indicator was added to the flask at a concentration of 5 μM in the medium. The flask was placed in CO2 incubator and incubated for 1 hour. Then the cells expressing the human VR1 receptors were detached from the flask follow by washing with phosphate buffer saline, PBS(−) and re-suspended in assay buffer. The 80 μl of aliquot of cell suspension (3.75×10^5 cells/ml) was added to the assay plate and the cells were spun down by centrifuge (950 rpm, 20° C., 3 minutes). The capsaicin-induced changes in the intracellular calcium concentration were monitored using FDSS 6000 (Hamamatsu Photonics, Japan), a fluorometric imaging system. The cell suspension in Krebs-Ringer HEPES (KRH) buffer (115 mM NaCl, 5.4 mM KCl, 1 mM MgSO4, 1.8 mM CaCl2, 11 mM D-Glucose, 25 mM HEPES, 0.96 mM Na2HPO4, pH 7.3) was pre-incubated with varying concentrations of the test compounds or KRH buffer (buffer control) for 15 minutes at room temperature under dark conditions. Then the capsaicin solution, which gives 300 nM in assay mixture, was automatically added to the assay plate by the FDSS 6000. The monitoring of the changes in the fluorescence signals (λex=340 nm/380 nm, λem=510-520 nm) was initiated at 1 minute prior to the addition of capsaicin solution or acidic buffer and continued for 5 minute.

[1] = Half-life in human liver microsomes (HLM); assay type: in vitro ADME; conditions: human liver microsomes (HLM, HL101), 1 μM compound, 0.78 mg/mL HLM, pH 7.4, 37° C., NADPH
Description: Test compounds (1 μM) were incubated with 3.3 mM MgCl2 and 0.78 mg/mL HLM (HL101) in 100 mM potassium phosphate buffer (pH 7.4) at 37° C. on the 96-deep well plate. The reaction mixture was split into two groups, a non-P450 and a P450 group. NADPH was only added to the reaction mixture of the P450 group. An aliquot of samples of P450 group was collected at 0, 10, 30, and 60 minute time points, where the 0 minute time point indicated the time when NADPH was added into the reaction mixture of P450 group. An aliquot of samples of non-P450 group was collected at −10 and 65 minute time points. Collected aliquots were extracted with an acetonitrile solution containing an internal standard. The precipitated protein was spun down in a centrifuge (2000 rpm, 15 min). The compound concentration in supernatant was measured by LC/MS/MS system.
The half-life value was obtained by plotting the natural logarithm of the peak area ratio of compounds/internal standard versus time. The slope of the line of best fit through the points yields the rate of metabolism (k). This was converted to a half-life value using following equations: Half-life=ln 2/k Mono-Iodoacetate (MIA)-Induced OA Model

human VR1, sequence (Q8NER1 whole entry): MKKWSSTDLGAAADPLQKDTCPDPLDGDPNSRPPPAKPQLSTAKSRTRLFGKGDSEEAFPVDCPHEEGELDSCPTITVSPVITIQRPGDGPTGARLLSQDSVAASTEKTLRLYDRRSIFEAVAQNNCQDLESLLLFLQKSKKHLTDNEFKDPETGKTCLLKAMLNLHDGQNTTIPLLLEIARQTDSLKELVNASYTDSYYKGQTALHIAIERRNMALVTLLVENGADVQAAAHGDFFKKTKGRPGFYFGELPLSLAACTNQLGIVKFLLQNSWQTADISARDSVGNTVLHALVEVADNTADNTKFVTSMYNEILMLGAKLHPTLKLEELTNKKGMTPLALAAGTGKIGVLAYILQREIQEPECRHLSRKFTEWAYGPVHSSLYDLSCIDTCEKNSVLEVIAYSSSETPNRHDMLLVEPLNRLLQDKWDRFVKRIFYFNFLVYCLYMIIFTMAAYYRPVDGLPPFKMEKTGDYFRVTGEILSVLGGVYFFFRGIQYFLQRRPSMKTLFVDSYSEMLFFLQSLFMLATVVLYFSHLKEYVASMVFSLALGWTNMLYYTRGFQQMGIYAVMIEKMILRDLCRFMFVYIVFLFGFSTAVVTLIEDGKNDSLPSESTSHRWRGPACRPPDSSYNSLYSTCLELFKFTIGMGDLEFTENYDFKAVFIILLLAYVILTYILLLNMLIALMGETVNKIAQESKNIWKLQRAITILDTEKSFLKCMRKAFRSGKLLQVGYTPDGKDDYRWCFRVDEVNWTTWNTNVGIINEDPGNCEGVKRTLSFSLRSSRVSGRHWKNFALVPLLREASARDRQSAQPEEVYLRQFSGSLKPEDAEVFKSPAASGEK

Row | Structure (SMILES) | IC50 (human VR1) | half-life at 1 μM [1]
1 | C[C@@H](NC(=O)COc1cc(F)c(C(C)(C)C)c(F)c1)c1ccc(NS(C)(=O)=O)c(F)c1 [Example 2, 2-(4-TERT-BUTYL-3,5-DIFLUOROPHENOXY)-N-((1R)-1-{3-FLUORO-4-[(METHYLSULFONYL)AMINO]PHENYL}ETHYL)ACETAMIDE] | 31.3 nM | 12 min
2 | Cc1cc([C@@H](C)NC(=O)COc2cc(F)c(C(C)(C)C(F)(F)F)c(F)c2)ccc1NS(C)(=O)=O [Example 5, 2-[3,5-DIFLUORO-4-(2,2,2-TRIFLUORO-1,1-DIMETHYLETHYL)PHENOXY]-N-((1R)-1-{3-METHYL-4-[(METHYLSULFONYL)AMINO]PHENYL}ETHYL)ACETAMIDE] | 7.55 nM | 13 min
3 | C[C@@H](NC(=O)COc1cc(F)c(C(C)(C)C)c(F)c1)c1ccc(NS(C)(=O)=O)cc1 [Example 3, 2-(4-TERT-BUTYL-3,5-DIFLUOROPHENOXY)-N-((1R)-1-{4-[(METHYLSULFONYL)AMINO]PHENYL}ETHYL)ACETAMIDE] | 34.4 nM | 48 min
4 | Cc1cc([C@@H](C)NC(=O)COc2cc(F)c(C(C)(C)C)c(F)c2)ccc1NS(C)(=O)=O [Example 1, 2-(4-TERT-BUTYL-3,5-DIFLUOROPHENOXY)-N-((1R)-1-{3-METHYL-4-[(METHYLSULFONYL)AMINO]PHENYL}ETHYL)ACETAMIDE] | 3.13 nM | 31 min
5 | C[C@@H](NC(=O)COc1cc(F)c(C(C)(C)C)c(F)c1)c1ccc(NS(C)(=O)=O)c(CO)c1 [Example 4, 2-(4-TERT-BUTYL-3,5-DIFLUOROPHENOXY)-N-((1R)-1-{3-(HYDROXYMETHYL)-4-[(METHYLSULFONYL)AMINO]PHENYL}ETHYL)ACETOAMIDE] | 8.7 nM | 5.8 min
